Laboratory results as given in patent US9006450B2 (Boehringer Ingelheim International GmbH, priority 2010, dated 2015).

The compounds below were run against T1, human ACC2 (Homo sapiens, UniProt O00763) (assay: ACC2 assay, spectrophotometric 384 well assay (NADH-linked, coupled lactate dehydrogenase/pyruvate kinase)). Details: ACC2 assay, hACC2 construct lacking 128 N-terminal amino acids, 25° C., 340 nm; read-out: IC50.
T1 construct: made in house; host or cells: insect cells (baculoviral expression system)
Type: biochemical
In short: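 ADP output tracked via pyruvate kinase/lactate dehydrogenase NADH oxidation, slope at 340 nm over 15 min, 25° C, with 500 μM ATP and 200 μM each acetyl-CoA and NADH. Enzyme: insect-cell-expressed human ACC2, N-terminal 128 residues deleted; pH 7.5 Tris with citrate, KHCO3. IC50 from four-parameter regression versus vehicle and no-acetyl-CoA controls.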

T1 sequence (O00763 129-2458 limits assumed): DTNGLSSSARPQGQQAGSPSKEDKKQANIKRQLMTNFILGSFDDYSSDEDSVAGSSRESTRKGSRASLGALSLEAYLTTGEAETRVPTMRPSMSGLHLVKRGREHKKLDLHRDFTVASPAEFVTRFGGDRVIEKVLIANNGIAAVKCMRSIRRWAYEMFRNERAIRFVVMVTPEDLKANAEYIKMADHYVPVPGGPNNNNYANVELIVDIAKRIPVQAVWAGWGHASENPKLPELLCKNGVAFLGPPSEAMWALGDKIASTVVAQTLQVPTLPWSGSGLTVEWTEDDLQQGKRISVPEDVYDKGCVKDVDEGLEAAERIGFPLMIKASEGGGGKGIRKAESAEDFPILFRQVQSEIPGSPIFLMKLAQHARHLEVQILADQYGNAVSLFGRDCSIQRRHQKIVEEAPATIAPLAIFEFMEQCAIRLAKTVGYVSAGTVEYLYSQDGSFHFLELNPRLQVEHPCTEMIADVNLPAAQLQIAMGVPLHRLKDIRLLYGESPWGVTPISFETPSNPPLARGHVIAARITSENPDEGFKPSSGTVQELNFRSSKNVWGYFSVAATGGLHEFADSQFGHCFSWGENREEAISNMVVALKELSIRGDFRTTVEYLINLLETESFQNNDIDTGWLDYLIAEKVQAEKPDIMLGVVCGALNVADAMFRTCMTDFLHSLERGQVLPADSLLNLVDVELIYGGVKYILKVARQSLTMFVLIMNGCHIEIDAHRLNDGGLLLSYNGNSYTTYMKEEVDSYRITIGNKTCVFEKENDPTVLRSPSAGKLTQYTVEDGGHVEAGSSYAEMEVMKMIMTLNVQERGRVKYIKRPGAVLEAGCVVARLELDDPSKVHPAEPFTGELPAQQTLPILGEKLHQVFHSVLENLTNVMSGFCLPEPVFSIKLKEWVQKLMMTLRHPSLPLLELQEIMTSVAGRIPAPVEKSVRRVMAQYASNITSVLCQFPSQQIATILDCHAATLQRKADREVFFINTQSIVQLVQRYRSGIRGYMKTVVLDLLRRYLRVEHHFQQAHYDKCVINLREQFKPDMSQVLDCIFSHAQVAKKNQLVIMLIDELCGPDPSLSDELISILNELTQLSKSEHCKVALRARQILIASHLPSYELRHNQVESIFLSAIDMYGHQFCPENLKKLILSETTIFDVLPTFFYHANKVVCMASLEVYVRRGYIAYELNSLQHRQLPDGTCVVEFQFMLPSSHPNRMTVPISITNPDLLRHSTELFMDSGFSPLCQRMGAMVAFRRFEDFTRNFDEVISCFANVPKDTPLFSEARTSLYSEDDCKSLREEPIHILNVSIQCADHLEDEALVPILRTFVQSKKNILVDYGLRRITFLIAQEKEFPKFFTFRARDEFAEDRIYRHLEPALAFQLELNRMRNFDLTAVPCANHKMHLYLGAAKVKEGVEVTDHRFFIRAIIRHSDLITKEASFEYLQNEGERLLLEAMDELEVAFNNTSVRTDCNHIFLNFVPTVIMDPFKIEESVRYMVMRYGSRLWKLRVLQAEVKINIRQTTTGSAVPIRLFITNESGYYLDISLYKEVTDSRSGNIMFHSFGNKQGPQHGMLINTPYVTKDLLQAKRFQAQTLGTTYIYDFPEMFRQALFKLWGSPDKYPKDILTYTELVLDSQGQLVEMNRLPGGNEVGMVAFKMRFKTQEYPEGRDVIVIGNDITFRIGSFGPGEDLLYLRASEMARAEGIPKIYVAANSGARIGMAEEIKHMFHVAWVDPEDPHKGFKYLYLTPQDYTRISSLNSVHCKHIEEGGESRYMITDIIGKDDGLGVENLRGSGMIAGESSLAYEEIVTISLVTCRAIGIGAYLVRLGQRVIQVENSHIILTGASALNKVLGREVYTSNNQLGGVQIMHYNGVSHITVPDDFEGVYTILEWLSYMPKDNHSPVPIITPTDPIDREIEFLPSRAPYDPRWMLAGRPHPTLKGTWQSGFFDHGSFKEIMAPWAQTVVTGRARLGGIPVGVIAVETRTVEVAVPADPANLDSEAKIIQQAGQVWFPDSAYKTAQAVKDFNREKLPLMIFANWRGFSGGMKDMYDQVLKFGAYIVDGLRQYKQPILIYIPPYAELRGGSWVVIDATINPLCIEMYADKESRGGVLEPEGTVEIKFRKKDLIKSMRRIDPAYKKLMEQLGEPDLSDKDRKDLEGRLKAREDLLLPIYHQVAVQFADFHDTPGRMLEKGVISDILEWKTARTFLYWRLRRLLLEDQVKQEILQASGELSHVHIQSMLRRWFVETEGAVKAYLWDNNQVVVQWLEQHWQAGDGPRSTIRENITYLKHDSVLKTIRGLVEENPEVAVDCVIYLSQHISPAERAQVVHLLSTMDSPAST

Going from CCC(CC)Oc1cccc(N2CCC(c3ccc([C@H](C)NC(C)=O)cc3)CC2)c1 [Example 9.16] to CCC(CC)Oc1ccc(N2CCC(c3ccc([C@H](C)NC(C)=O)cc3)CC2)cc1 [Example 9.33], the IC50 falls from 690 nM to 120 nM (5.8-fold). The second is the more potent here.

First: CC(=O)N[C@@H](C)c1ccc(C2CCN(c3cccc(OCc4ccccc4)c3)CC2)cc1 [Example 9.17]
Second: CC(=O)N[C@@H](C)c1ccc(C2CCN(c3ccc(OCc4ccccc4)cc3)CC2)cc1 [Example 9.34]
The IC50 of the first is 3.7-fold higher: 550 nM for the first, 150 nM for the second. The second is the more potent here.

CC(=O)N[C@@H](C)c1ccc(C2CCN(c3cccc(OC(C)c4ccccc4)c3)CC2)cc1 (stereo partly drawn) [Example 9.18] and CC(=O)N[C@@H](C)c1ccc(C2CCN(c3ccc(OC(C)c4ccccc4)cc3)CC2)cc1 (stereo partly drawn) [Example 9.35] are within 1.5-fold of each other in IC50: 150 nM for the first, 210 nM for the second.

Going from CCCC(C)Oc1ccc(N2CCC(c3ccc([C@H](C)NC(C)=O)cc3)CC2)cc1 (stereo partly drawn) [Example 9.19] to CC(=O)N[C@@H](C)c1ccc(C2CCN(c3ccc(OCCC(C)C)cc3)CC2)cc1 [Example 9.20], the IC50 falls from 140 nM to 90 nM (1.6-fold). The second is the more potent here.

Going from CC(=O)N[C@@H](C)c1ccc(C2CCN(c3ccc(OCC(C)(C)C)cc3)CC2)cc1 [Example 9.21] to C=CCOc1ccc(N2CCC(c3ccc([C@H](C)NC(C)=O)cc3)CC2)cc1 [Example 9.22], the IC50 rises from 100 nM to 160 nM (1.6-fold).

First: CC(=O)N[C@@H](C)c1ccc(C2CCN(c3ccc(OC4CCCCC4)cc3)CC2)cc1 [Example 9.23]
Second: CC(=O)N[C@@H](C)c1ccc(C2CCN(c3ccc(OCC4CCC4)cc3)CC2)cc1 [Example 9.29]
The IC50 of the first is 3.3-fold higher: 200 nM for the first, 60 nM for the second.

Compared with COCCOc1ccc(N2CCC(c3ccc([C@H](C)NC(C)=O)cc3)CC2)cc1 [Example 9.24], COCCCOc1ccc(N2CCC(c3ccc([C@H](C)NC(C)=O)cc3)CC2)cc1 [Example 9.26] is 2.1-fold lower in IC50: 470 nM for the first, 220 nM for the second. The second is the more potent here.

First: CC#CCOc1ccc(N2CCC(c3ccc([C@H](C)NC(C)=O)cc3)CC2)cc1 [Example 9.25]
Second: C=CCCOc1ccc(N2CCC(c3ccc([C@H](C)NC(C)=O)cc3)CC2)cc1 [Example 9.27]
The IC50 of the first is 16-fold higher: 1100 nM for the first, 70 nM for the second.

CC(=O)N[C@@H](C)c1ccc(C2CCN(c3ccc(OCc4cc(C)on4)cc3)CC2)cc1 [Example 9.28] and CC(=O)N[C@@H](C)c1ccc(C2CCN(c3ccc(OCC4CCCCO4)cc3)CC2)cc1 (stereo partly drawn) [Example 9.32] are within 1.5-fold of each other in IC50: 780 nM for the first, 990 nM for the second.

Compared with CC(=O)N[C@@H](C)c1ccc(C2CCN(c3ccc(OCC4CCOCC4)cc3)CC2)cc1 [Example 9.30], CC(=O)N[C@@H](C)c1ccc(C2CCN(c3ccc(OCCOC4CC4)cc3)CC2)cc1 [Example 9.31] is 2.1-fold higher in IC50: 2300 nM for the first, 4800 nM for the second.

CC(=O)N[C@@H](C)c1ccc(C2CCN(c3ccc(OCC4CCC4)c(C#N)c3)CC2)cc1 [Example 9.36] and CC(=O)N[C@@H](C)c1ccc(C2CCN(c3ccc(OCC4CC4)c(C#N)c3)CC2)cc1 [Example 9.40] are within 1.5-fold of each other in IC50: 3300 nM for the first, 2900 nM for the second.

Going from CC(=O)N[C@@H](C)c1ccc(C2CCN(c3ccc(OCC4CCC4)c(C)c3)CC2)cc1 [Example 9.37] to CC(=O)N[C@@H](C)c1ccc(C2CCN(c3ccc(OCC4CC4)c(C)c3)CC2)cc1 [Example 9.38], the IC50 falls from 690 nM to 410 nM (1.7-fold).

CC(=O)N[C@@H](C)c1ccc(C2CCN(c3ccc(OCC4CC4)c(F)c3)CC2)cc1 [Example 9.41] and CC(=O)N[C@@H](C)c1ccc(C2CCN(c3ccc(OCC4CCC4)c(F)c3)CC2)cc1 [Example 9.42] are within 1.5-fold of each other in IC50: 220 nM for the first, 160 nM for the second.

COc1cc(N2CCC(c3ccc([C@H](C)NC(C)=O)cc3)CC2)ccc1OCC1CCC1 [Example 9.43] and COc1cc(N2CCC(c3ccc([C@H](C)NC(C)=O)cc3)CC2)ccc1OCC1CC1 [Example 9.44] are within 1.5-fold of each other in IC50: 430 nM for the first, 480 nM for the second.

CC(=O)N[C@@H](C)c1ccc(C2CCN(c3ccc(OCC4CCC4)c(Cl)c3)CC2)cc1 [Example 9.45] and CC(=O)N[C@@H](C)c1ccc(C2CCN(c3ccc(OCC4CC4)c(Cl)c3)CC2)cc1 [Example 9.46] are within 1.5-fold of each other in IC50: 380 nM for the first, 560 nM for the second.
